Data as given in patent EP0226973A2, “4-Bis(2'-hydroxyethyl)amino-1-(3'-hydroxypropyl)amino-2-nitro-benzene, process for its preparation and means for dyeing hair” (Wella Aktiengesellschaft, priority 1985, dated 1987).
≈ marks a conversion by molar mass, not a printed value. Like-named read-outs stand apart in the source and are kept apart here.

Legend:
Solubility in water = type: physicochemical; settings: read-out: Löslichkeit in Wasser
Human-Lymphozyten = assay: Human lymphocyte mutagenicity test; type: cell-based; settings: Human-Lymphozytentest
Ames mutagenicity test = type: cell-based; settings: Mutagenitätstest nach Ames
[1] = Toxicological properties (general statement)

Compound | solubility (Solubility in water) | mutagene Wirkung (Human-Lymphozyten) | mutagene Wirkung (Ames mutagenicity test) | solubility (Solubility in water; ohne Zusatz von Lösungsvermittlern) | toxikologische Eigenschaften [1]
O=[N+]([O-])c1cc(N(CCO)CCO)ccc1NCCCO [Farbstoff (I), 4-Bis(2′-hydroxyethyl)amino-l-(3′-hydroxypropyl)amino-2-nitro-benzol] | ~20000 µg/mL (≈ 66.8 mM) | keine mutagene Wirkung | keine mutagene Wirkung |  | 
CCNc1ccc(N(CCO)CCO)cc1[N+](=O)[O-] [Farbstoff (III), 4-Bis(2′-hydroxyethyl)amino-l-ethylamino-2-nitro-benzol] |  |  |  | < 1500 µg/mL | 
CNc1ccc(N(CCO)CCO)cc1[N+](=O)[O-] [Farbstoff (V), 4-Bis(2′-hydroxyethyl)amino-l-methylamino-2-nitro-benzols] | ~5000 µg/mL (≈ 19.6 mM) | im Gegensatz zu Farbstoff (V) | im Gegensatz zu Farbstoff (V) |  | sehr unbefriedigend
